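Five concentrations, 48 hours, 96-well plates. Abbreviation: GI50, concentration required for 50% inhibition of growth. TGI marks complete inhibition of growth.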
Columns and labels:
Experiment in all cases: growth of human tumour cells (NCI), 48 h
[1] = tested on: DMS 114 small cell lung
[2] = tested on: KM20L2 colon
[3] = tested on: M19-MEL melanoma
[4] = tested on: RPMI-8226 leukemia
[5] = tested on: SK-MEL-28 melanoma
[6] = tested on: XF 498 CNS
[7] = tested on: BT-549 breast
[8] = tested on: HS 578T breast
[9] = tested on: MCF7 breast
[10] = tested on: MDA-MB-435

Row | SMILES | TGI [1] [µM] | TGI [2] [µM] | TGI [3] [µM] | TGI [4] [µM] | TGI [5] [µM] | TGI [6] [µM] | also measured
1 | COC(=O)C(CC(=O)Nc1ccc(Cl)c(Cl)c1)C(=O)C(=O)NC1C2CC3CC(C2)CC1C3 (centres undefined) | > 100 | > 100 | > 100 | > 100 | > 100 | – | –
2 | N#CC(C#N)=C1SCC(=O)CS1 | > 100 | > 100 | > 100 | > 100 | – | > 100 | –
3 | O=C(N/C(=C\c1ccc(Oc2ccc(Cl)c(Cl)c2)cc1)c1nc2ccccc2[nH]1)c1ccccc1 | – | 37.2 | 94 | – | 35.1 | 34.6 | –
4 | C/C(=C\CC[C@]1(C)OC(C)(C)OC1CC/C(C)=C/CO[Si](c1ccccc1)(c1ccccc1)C(C)(C)C)CC/C=C/CO[Si](C)(C)C(C)(C)C (some centres undefined) | > 100 | > 100 | > 100 | > 100 | > 100 | – | –
5 | O=C(/C=C1/NC(=O)CS1)Nc1ccccc1 | > 100 | > 100 | > 100 | > 100 | > 100 | > 100 | –
6 | O=C1C[C@H]2CC3(CC[C@H]2CN1)OCCO3 | – | – | > 100 | > 100 | > 100 | > 100 | –
7 | C[CH2][Sn]([Cl])([Cl])[CH2]C | 31.4 | > 100 | > 67.2 | 48.3 | 36.3 | – | GI50 [1]: 16.2 µM; GI50 [2]: 71.4 µM; GI50 [3]: 26 µM; GI50 [4]: 17.1 µM; GI50 [5]: 19.8 µM
8 | C[CH2][Sn]([CH2]C)([O]C(=O)c1cccc(F)c1)[O][Sn]([CH2]C)([CH2]C)[O]C(=O)c1cccc(F)c1 | 27.3 | > 100 | 31.9 | – | 30.5 | 29.8 | GI50 [1]: 14 µM; GI50 [2]: 38.4 µM; GI50 [3]: 16.8 µM; GI50 [5]: 16.7 µM; GI50 [6]: 16.2 µM
9 | CC1(C)C2C/C(=C\c3ccccc3)C(=O)C1C2 (centres undefined) | > 100 | – | > 100 | > 100 | > 100 | – | –
10 | COc1cc(C(=O)CC2(O)C(=O)Nc3c(Cl)cc(Cl)cc32)ccc1O (centres undefined) | > 100 | > 100 | – | > 100 | > 100 | > 100 | –
11 | Cc1ccc(/C=C2\CCCC\C2=N\O)cc1 | – | > 100 | > 100 | – | > 100 | > 100 | –
12 | CCOC(=O)NC(=O)c1cn(CCN2CCN(C(=O)NCCCCCCNC(=O)N3CCN(CCn4cc(C(=O)NC(=O)OCC)c(=O)n(CCN(CC)CC)c4=O)CC3)CC2)c(=O)n(CCC(CC)CC)c1=O | > 100 | > 100 | > 100 | > 100 | > 100 | – | –
13 | NC(CCSC(F)F)C(=O)O (centres undefined) | > 100 | > 100 | > 100 | – | > 100 | > 100 | –
14 | N#CN1CCC=C(c2cc3ccccc3[nH]2)C1 | – | > 448 | > 448 | > 448 | > 448 | – | –
15 | COc1cc(/C=C2/C(=O)NC(Cc3cc(OC)c(OC)c(C)c3OC)C(=O)N2Cc2ccccc2)c(OC)c(C)c1OC (centres undefined) | > 100 | > 100 | > 100 | 91.4 | > 100 | – | –
16 | COC1=CC(=O)[C@]2(C)[C@H](C1=O)C(C)[C@H]2c1ccccc1 (some centres undefined) | – | – | > 100 | > 100 | > 100 | > 100 | –
17 | COCCNC(=O)c1ccc(-c2nc3ccc4[nH]ncc4c3c3c2CCCC3)cc1 | – | – | – | 7.03 | 98.2 | – | GI50 [7]: 1.22 µM; TGI [7]: 9.34 µM; GI50 [8]: 0.88 µM; TGI [8]: 4.68 µM; GI50 [9]: 2.52 µM; TGI [9]: 20.4 µM; GI50 [10]: 2.83 µM; TGI [10]: > 100 µM; GI50 [4]: 1.74 µM; GI50 [5]: 2.49 µM
18 | COc1cc(/C=C/C(=O)c2c(C)n([O-])c3ccc(Cl)cc3[n+]2=O)cc(OC)c1OC | – | – | – | > 100 | > 100 | – | GI50 [7]: 18.7 µM; TGI [7]: 42.5 µM; GI50 [8]: 12.4 µM; TGI [8]: 64.3 µM; GI50 [9]: 57 µM; TGI [9]: > 100 µM; GI50 [10]: > 100 µM; TGI [10]: > 100 µM; GI50 [4]: > 100 µM; GI50 [5]: > 100 µM
19 | COC(=O)c1cc2oc(/C=C3\SC(=S)N(NC(C)=O)C3=O)cc2n1Cc1ccccc1 | – | – | – | 5.55 | 38.5 | – | GI50 [7]: 3.34 µM; TGI [7]: 28.7 µM; GI50 [8]: 6.61 µM; TGI [8]: > 50 µM; GI50 [9]: 2.53 µM; TGI [9]: > 50 µM; GI50 [10]: 1.1 µM; TGI [10]: 4.02 µM; GI50 [4]: 0.758 µM; GI50 [5]: 9.06 µM
20 | [C-]#[N+]C(C)(C)C[C@H]1CC(C)C2CCC(C)C3([N+]#[C-])CCC(=C)C1[C@H]23 (some centres undefined) | – | 11.6 | 9.43 | – | > 50 | 10.1 | –
21 | CS/C(c1ccccc1)=[N+](/C)[O-] | – | > 100 | > 100 | > 87.1 | > 100 | > 100 | –
22 | O=C1c2c(nc3ccccc3c2-c2ccccc2)CN1Nc1ccccc1 | > 100 | > 100 | > 100 | > 100 | – | > 100 | –
23 | Cc1ccc(N2C(=O)/C(=C/c3ccc(N(CCC#N)CCC#N)cc3C)N=C2c2cc([N+](=O)[O-])ccc2Cl)cc1 | > 100 | – | > 100 | > 100 | > 100 | – | –
